According to ChEMBL document CHEMBL3885861, “Open TG-GATES”:

Organism: Rattus norvegicus
Experiment: Open TG-GATES - Regimen: Single
Type: toxicity, organism-based, Sprague-Dawley
Parameters: regimen Single, gender Male, age 6 weeks
Settings: in vivo, po, 0 mg/kg, route gavage, dose level Control; for APTT / Bas / Eos / Fbg / Hb / Ht / Lym / MCH / MCHC / MCV / Mono / Neu / PT / Plat / RBC / Ret / WBC: tissue Blood; for KIDNEY_L / KIDNEY_R / KIDNEY_TOTAL: tissue Kidney; for LIVER: tissue Liver; for A/G / ALP / ALT / AST / BUN / CRE / Ca / Cl / DBIL / GLC / IP / K / LDH / Na / PL / RALB / TBIL / TC / TG / TP / gamma-GTP: tissue Plasma

O=C(O)c1ccccc1Nc1ccccc1 [FENAMIC ACID]
TERMINAL_BW (3 h): 209.2 g | APTT (3 h): 16.5 s | Bas (3 h): 0.4% | Eos (3 h): 1% | Fbg (3 h): 255.6 mg/dL | Hb (3 h): 13.1 g/dL | Ht (3 h): 39.6% | Lym (3 h): 73.4% | MCH (3 h): 20.8 pg | MCHC (3 h): 33% | MCV (3 h): 63.1 fL | Mono (3 h): 2% | Neu (3 h): 22.8% | PT (3 h): 14 s | Plat (3 h): 119.2 x10_4/uL | RBC (3 h): 627.8 x10_4/ul | Ret (3 h): 8.3% | WBC (3 h): 95.4 x10_2/uL | KIDNEY_L (3 h): 0.9 g | KIDNEY_R (3 h): 0.9 g | KIDNEY_TOTAL (3 h): 1.8 g | LIVER (3 h): 8.8 g | A/G (3 h): 0.9 | ALP (3 h): 1511 IU/L | ALT (3 h): 33.2 IU/L | AST (3 h): 75 IU/L | BUN (3 h): 9.2 mg/dL | CRE (3 h): 0.2 mg/dL | Ca (3 h): 10.9 mg/dL | Cl (3 h): 105.4 meq/L | DBIL (3 h): 0.008 mg/dL | GLC (3 h): 185.4 mg/dL | IP (3 h): 9 mg/dL | K (3 h): 4.2 meq/L | LDH (3 h): 75.4 IU/L | Na (3 h): 144 meq/L | PL (3 h): 132 mg/dL | RALB (3 h): 2.5 g/dL | TBIL (3 h): 0.05 mg/dL | TC (3 h): 69 mg/dL | TG (3 h): 77.6 mg/dL | TP (3 h): 5.4 g/dL | gamma-GTP (3 h): 1 IU/L | TERMINAL_BW (6 h): 204.2 g | APTT (6 h): 18.5 s | Bas (6 h): 0.4% | Eos (6 h): 0.8% | Fbg (6 h): 283.4 mg/dL | Hb (6 h): 13.2 g/dL | Ht (6 h): 39.8% | Lym (6 h): 76.4% | MCH (6 h): 20.7 pg | MCHC (6 h): 33.1% | MCV (6 h): 62.7 fL | Mono (6 h): 2.8% | Neu (6 h): 19.6% | PT (6 h): 13.9 s | Plat (6 h): 112.2 x10_4/uL | RBC (6 h): 634.4 x10_4/ul | Ret (6 h): 8.3% | WBC (6 h): 84.7 x10_2/uL | KIDNEY_L (6 h): 0.9 g | KIDNEY_R (6 h): 0.9 g | KIDNEY_TOTAL (6 h): 1.8 g | LIVER (6 h): 8.2 g | A/G (6 h): 0.9 | ALP (6 h): 1530.8 IU/L | ALT (6 h): 35 IU/L | AST (6 h): 77.4 IU/L | BUN (6 h): 7.8 mg/dL | CRE (6 h): 0.2 mg/dL | Ca (6 h): 11.1 mg/dL | Cl (6 h): 105 meq/L | DBIL (6 h): 0.004 mg/dL | GLC (6 h): 157.2 mg/dL | IP (6 h): 9.1 mg/dL | K (6 h): 4.1 meq/L | LDH (6 h): 79.6 IU/L | Na (6 h): 143 meq/L | PL (6 h): 136.8 mg/dL | RALB (6 h): 2.5 g/dL | TBIL (6 h): 0.054 mg/dL | TC (6 h): 75.6 mg/dL | TG (6 h): 56.2 mg/dL | TP (6 h): 5.4 g/dL | gamma-GTP (6 h): 1.2 IU/L | TERMINAL_BW (9 h): 204.4 g | APTT (9 h): 18.2 s | Bas (9 h): 0.6% | Eos (9 h): 1% | Fbg (9 h): 261.6 mg/dL | Hb (9 h): 13.3 g/dL | Ht (9 h): 40.4% | Lym (9 h): 75.4% | MCH (9 h): 20.5 pg | MCHC (9 h): 33.1% | MCV (9 h): 62.1 fL | Mono (9 h): 1.8% | Neu (9 h): 21.6% | PT (9 h): 14.3 s | Plat (9 h): 129.3 x10_4/uL | RBC (9 h): 650.4 x10_4/ul | Ret (9 h): 8.1% | WBC (9 h): 69 x10_2/uL | KIDNEY_L (9 h): 0.9 g | KIDNEY_R (9 h): 0.9 g | KIDNEY_TOTAL (9 h): 1.8 g | LIVER (9 h): 7.9 g | A/G (9 h): 0.9 | ALP (9 h): 1501.2 IU/L | ALT (9 h): 35 IU/L | AST (9 h): 77.6 IU/L | BUN (9 h): 9.2 mg/dL | CRE (9 h): 0.2 mg/dL | Ca (9 h): 10.8 mg/dL | Cl (9 h): 106 meq/L | DBIL (9 h): 0 mg/dL | GLC (9 h): 182.4 mg/dL | IP (9 h): 9.6 mg/dL | K (9 h): 3.9 meq/L | LDH (9 h): 70 IU/L | Na (9 h): 145 meq/L | PL (9 h): 130.6 mg/dL | RALB (9 h): 2.6 g/dL | TBIL (9 h): 0.05 mg/dL | TC (9 h): 72.8 mg/dL | TG (9 h): 39 mg/dL | TP (9 h): 5.5 g/dL | gamma-GTP (9 h): 1.2 IU/L | TERMINAL_BW (24 h): 218.8 g | APTT (24 h): 16.2 s | Bas (24 h): 0.8% | Eos (24 h): 1% | Fbg (24 h): 271 mg/dL | Hb (24 h): 13.5 g/dL | Ht (24 h): 40.9% | Lym (24 h): 80.6% | MCH (24 h): 20.9 pg | MCHC (24 h): 33% | MCV (24 h): 63.3 fL | Mono (24 h): 2% | Neu (24 h): 15.2% | PT (24 h): 14.4 s | Plat (24 h): 124.1 x10_4/uL | RBC (24 h): 646.8 x10_4/ul | Ret (24 h): 7% | WBC (24 h): 111.8 x10_2/uL | KIDNEY_L (24 h): 1 g | KIDNEY_R (24 h): 1 g | KIDNEY_TOTAL (24 h): 1.9 g | LIVER (24 h): 9.7 g | A/G (24 h): 0.9 | ALP (24 h): 1870.8 IU/L | ALT (24 h): 44.4 IU/L | AST (24 h): 73.8 IU/L | BUN (24 h): 13.4 mg/dL | CRE (24 h): 0.2 mg/dL | Ca (24 h): 11.2 mg/dL | Cl (24 h): 105.2 meq/L | DBIL (24 h): 0.008 mg/dL | GLC (24 h): 177.2 mg/dL | IP (24 h): 7.8 mg/dL | K (24 h): 4.2 meq/L | LDH (24 h): 85.4 IU/L | Na (24 h): 142.6 meq/L | PL (24 h): 148.4 mg/dL
